Experiment [1] deals with T1, Serine/threonine-protein kinase VRK1 (Homo sapiens) (UniProt Q99986).
T1 sequence (whole entry): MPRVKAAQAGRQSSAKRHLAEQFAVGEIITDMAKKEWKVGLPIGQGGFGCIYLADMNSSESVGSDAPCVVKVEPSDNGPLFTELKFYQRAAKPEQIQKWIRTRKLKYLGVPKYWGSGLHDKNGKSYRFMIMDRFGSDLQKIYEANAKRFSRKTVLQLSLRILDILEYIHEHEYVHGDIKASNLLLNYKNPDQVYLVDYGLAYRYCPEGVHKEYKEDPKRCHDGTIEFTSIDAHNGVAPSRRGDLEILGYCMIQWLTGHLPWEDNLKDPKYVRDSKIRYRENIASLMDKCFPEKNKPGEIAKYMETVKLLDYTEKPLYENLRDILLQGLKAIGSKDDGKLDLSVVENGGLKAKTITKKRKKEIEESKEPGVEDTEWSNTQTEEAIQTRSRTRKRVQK
As to the kind of experiment: Inhibition of human VRK1 at 18.6 nM by HotSpot assay relative to control.

Experiment [2] concerns the target Glycogen synthase kinase-3 beta (Homo sapiens) (UniProt P49841). Description: Inhibition of human GSK3b at 18.6 nM by HotSpot assay relative to control.
Experiment [3] has as its target Tyrosine-protein kinase Fer (Homo sapiens) (UniProt P16591). Description: Inhibition of human FER at 1.82 nM by HotSpot assay relative to control.
The target of experiment [4] is Protein-tyrosine kinase 2-beta (Homo sapiens) (UniProt Q14289). As to the kind of experiment: Inhibition of human PYK2 at 1.82 nM by HotSpot assay relative to control.
Chain of Protein-tyrosine kinase 2-beta (Homo sapiens) (Q14289 whole entry, looked up): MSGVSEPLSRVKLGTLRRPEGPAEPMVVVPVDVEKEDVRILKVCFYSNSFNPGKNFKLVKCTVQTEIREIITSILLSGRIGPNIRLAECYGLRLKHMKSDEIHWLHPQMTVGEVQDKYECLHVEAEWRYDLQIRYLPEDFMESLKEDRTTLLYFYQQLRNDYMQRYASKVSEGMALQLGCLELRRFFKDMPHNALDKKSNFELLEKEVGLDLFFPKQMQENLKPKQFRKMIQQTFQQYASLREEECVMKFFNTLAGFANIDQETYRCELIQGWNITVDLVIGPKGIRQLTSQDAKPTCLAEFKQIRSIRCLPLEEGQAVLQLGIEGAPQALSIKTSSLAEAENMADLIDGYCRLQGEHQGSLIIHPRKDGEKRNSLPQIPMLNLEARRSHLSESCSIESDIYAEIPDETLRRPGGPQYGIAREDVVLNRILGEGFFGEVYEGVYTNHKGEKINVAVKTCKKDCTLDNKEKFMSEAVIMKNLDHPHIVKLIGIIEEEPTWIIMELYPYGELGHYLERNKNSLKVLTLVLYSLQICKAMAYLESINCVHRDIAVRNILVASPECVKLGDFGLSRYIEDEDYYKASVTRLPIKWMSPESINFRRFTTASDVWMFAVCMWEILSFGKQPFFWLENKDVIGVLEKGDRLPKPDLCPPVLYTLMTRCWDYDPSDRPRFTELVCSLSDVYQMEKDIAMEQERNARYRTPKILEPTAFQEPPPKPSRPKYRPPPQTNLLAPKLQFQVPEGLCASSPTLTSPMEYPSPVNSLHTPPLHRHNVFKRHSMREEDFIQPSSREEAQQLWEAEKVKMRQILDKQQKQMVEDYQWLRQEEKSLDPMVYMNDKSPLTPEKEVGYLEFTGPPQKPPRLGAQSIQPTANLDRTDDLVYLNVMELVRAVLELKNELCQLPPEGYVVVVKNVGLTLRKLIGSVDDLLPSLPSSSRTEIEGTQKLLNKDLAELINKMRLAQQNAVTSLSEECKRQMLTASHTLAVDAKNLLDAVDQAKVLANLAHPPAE
For experiment [5], the target named is T2, TGF-beta receptor type-1 (Homo sapiens) (UniProt P36897).
T2 sequence (whole entry): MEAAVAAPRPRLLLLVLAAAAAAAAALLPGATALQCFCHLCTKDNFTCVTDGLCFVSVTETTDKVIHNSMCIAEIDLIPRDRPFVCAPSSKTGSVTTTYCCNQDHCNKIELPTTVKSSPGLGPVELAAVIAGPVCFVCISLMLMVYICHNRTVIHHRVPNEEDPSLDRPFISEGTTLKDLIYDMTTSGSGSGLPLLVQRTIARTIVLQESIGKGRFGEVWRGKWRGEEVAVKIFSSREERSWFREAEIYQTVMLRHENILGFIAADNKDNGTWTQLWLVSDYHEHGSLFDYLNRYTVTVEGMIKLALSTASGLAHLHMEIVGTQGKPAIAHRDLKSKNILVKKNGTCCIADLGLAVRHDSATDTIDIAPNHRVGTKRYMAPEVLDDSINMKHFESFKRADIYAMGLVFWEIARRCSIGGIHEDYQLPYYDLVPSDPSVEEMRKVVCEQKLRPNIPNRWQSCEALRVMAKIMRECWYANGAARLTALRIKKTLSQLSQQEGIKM
As to the kind of experiment: Inhibition of human ALK5 at 1.82 nM by HotSpot assay relative to control.

Experiment [6] has as its target T3, Activin receptor type-1 (Homo sapiens) (UniProt Q04771).
T3 sequence (whole entry): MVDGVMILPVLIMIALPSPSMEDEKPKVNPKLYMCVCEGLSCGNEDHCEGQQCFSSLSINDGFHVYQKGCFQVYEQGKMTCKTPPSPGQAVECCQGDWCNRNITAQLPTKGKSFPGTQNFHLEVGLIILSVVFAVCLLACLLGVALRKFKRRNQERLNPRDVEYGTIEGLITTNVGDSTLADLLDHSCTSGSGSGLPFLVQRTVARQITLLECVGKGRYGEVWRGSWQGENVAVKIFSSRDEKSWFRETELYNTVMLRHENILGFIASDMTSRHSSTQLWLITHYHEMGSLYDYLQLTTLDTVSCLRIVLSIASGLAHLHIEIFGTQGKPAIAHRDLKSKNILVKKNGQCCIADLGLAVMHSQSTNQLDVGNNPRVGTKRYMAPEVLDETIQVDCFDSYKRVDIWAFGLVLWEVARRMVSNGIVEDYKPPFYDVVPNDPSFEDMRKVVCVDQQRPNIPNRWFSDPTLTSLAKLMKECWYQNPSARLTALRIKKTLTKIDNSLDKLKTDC
Description: Inhibition of human ALK2 at 1.82 nM by HotSpot assay relative to control.

The target in experiment [7] is Serine/threonine-protein kinase pim-3 (Homo sapiens) (UniProt Q86V86). As to the kind of experiment: Inhibition of human PIM3 at 1.82 nM by HotSpot assay relative to control.
The target in experiment [8] is T4, Serine/threonine-protein kinase TAO3 (Homo sapiens) (UniProt Q9H2K8).
T4 sequence (whole entry): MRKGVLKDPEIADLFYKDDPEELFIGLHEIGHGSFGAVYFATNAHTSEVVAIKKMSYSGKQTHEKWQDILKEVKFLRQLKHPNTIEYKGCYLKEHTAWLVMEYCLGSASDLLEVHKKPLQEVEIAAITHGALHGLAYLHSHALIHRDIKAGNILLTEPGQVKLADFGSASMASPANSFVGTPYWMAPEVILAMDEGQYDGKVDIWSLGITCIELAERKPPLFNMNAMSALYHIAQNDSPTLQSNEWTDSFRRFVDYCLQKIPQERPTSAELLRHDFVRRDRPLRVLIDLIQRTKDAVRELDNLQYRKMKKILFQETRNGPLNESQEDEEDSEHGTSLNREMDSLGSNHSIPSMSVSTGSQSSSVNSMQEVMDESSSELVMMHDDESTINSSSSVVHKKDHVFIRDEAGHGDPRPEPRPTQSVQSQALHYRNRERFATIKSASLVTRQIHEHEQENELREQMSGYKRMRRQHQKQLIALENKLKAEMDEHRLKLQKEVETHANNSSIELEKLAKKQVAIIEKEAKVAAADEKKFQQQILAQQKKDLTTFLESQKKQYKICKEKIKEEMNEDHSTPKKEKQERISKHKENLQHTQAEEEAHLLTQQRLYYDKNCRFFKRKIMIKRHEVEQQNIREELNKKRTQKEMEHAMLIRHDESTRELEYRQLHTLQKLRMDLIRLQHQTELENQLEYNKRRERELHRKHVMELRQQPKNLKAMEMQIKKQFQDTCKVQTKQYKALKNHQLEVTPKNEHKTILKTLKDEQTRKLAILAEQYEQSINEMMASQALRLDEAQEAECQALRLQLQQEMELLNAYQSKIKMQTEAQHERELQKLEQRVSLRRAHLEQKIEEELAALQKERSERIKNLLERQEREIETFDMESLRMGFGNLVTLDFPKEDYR
As to the kind of experiment: Inhibition of human JIK at 1.82 nM by HotSpot assay relative to control.

Chain of Tyrosine-protein kinase Fer (Homo sapiens) (P16591 whole entry, looked up): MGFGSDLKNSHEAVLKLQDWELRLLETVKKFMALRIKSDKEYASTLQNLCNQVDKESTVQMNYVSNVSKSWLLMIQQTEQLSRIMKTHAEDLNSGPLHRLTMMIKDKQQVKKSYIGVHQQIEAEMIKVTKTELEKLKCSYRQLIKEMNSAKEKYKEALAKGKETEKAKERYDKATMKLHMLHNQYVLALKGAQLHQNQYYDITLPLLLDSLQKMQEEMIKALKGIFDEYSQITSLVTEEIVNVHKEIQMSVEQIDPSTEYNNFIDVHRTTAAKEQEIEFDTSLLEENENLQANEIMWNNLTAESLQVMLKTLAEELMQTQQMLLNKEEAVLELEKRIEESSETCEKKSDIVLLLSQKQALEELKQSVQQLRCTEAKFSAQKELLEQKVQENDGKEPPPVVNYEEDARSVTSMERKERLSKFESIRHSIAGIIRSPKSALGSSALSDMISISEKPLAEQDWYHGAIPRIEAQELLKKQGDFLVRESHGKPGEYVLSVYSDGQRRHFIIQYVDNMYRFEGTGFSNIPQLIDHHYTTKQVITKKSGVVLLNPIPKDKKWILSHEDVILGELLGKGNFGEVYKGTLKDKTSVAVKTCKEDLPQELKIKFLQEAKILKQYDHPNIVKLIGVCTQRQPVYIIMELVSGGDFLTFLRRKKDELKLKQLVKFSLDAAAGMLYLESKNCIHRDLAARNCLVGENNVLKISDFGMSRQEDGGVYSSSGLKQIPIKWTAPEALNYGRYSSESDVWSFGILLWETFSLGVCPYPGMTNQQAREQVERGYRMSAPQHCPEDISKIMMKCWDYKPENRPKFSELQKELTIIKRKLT
Chain of Glycogen synthase kinase-3 beta (Homo sapiens) (P49841 whole entry, looked up): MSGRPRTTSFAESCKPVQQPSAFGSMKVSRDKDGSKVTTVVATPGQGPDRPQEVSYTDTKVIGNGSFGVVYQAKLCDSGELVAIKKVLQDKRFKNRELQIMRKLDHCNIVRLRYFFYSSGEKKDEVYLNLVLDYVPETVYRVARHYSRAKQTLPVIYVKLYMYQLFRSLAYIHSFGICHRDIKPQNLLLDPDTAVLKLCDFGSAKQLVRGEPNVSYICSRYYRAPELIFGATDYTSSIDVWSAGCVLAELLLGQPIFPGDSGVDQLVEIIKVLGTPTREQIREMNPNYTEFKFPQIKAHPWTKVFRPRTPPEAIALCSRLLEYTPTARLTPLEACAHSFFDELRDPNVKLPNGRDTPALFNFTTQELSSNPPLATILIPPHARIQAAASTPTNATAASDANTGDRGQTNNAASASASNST

By inhibition is commonly meant the drop in the measured response relative to a control, in per cent. Take `C[C@]1(O)C[C@@H](c2nc(-c3ccc4ccc(-c5ccccc5)nc4c3)c3c(N)nccn32)C1`: the inhibition is -6.1% in experiment [1] and 67.1% in experiment [2].

On to `C[C@@]1(C(=O)Nc2ccc(F)nc2)CCCN1c1nc(Nc2cc(C3CC3)n[nH]2)c2cccn2n1`, for which the inhibition in experiment [3] was -2.54%; in experiment [4] it was 1.81%; in experiment [5], -0.63%; in experiment [6] it was 5.9%; in experiment [7], 19.1%; in experiment [8] it was 4.12%.

These data come from ChEMBL document CHEMBL5653615 (J Biol Chem, 2013).
